Reference: patent US9399631B2, “Polyphenol proteasome inhibitors, synthesis, and methods of use” (UNIVERSITY OF SOUTH FLORIDA, priority 2003, dated 2016)

Legend:
Type in all cases: cell-based, human
LNCaP cells [1] = assay: Soft agar colony formation assay; conditions: 10 μM, 14 day-incubation
In short: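 2×10^4 human prostate cancer cells seeded in 0.3% top agar over a 0.6% agar layer (DMEM, 10% FBS) together with analogs at 50 μM or 10 μM, or solvent control. Incubated 14 days at 37 °C, 5% CO2, then stained overnight with MTT (1 mg/ml). Colonies counted; means of triplicate independent experiments ± SD.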

LNCaP cells [2] = assay: Flow cytometry cell cycle analysis, LNCaP cells; conditions: 10 μM, 24 hours
Description: Flow Cytometry. Cell cycle analysis based on DNA content was performed as in An et al. (An, B. et al. Cell Death Differ, 1998, 5:1062-75). At each time point, cells were harvested, counted, and washed twice with PBS. Cells (5×10^6) were suspended in 0.5 ml PBS, fixed in 5 ml of 70% ethanol overnight at −20° C., centrifuged, resuspended again in 1 ml of propidium iodide staining solution (50 μg propidium iodide, 100 units RNase A and 1 mg glucose per ml PBS), and incubated at room temperature for 30 minutes. The cells were then analyzed with FACScan (Becton Dickinson Immunocytometry, Calif.), ModFit LT and WinMDI V.2.8 cell cycle analysis software (Verity Software; Topsham, Me.). The cell cycle distribution is shown as the percentage of cells containing G1, S, G2, and M phase DNA judged by propidium iodide staining The apoptotic population is determined as the percentage of cells with sub-G1 DNA content (<G1).
It has been shown that overexpression of p27 and IκB-α results in G1 arrest. If increased levels of these proteasome target proteins by synthetic GTPs are functional, it would be expected to see growth arrest of tumor cells in G1 phase. To test this hypothesis, asynchronous prostate LNCaP cells were treated with 10 μM of synthetic (+)-EGCG or (+)-GCG, along with each respective natural GTP as control, for 24 hours. Cells were then harvested, and analyzed by cell cycle analysis by flow cytometry. […] Growth arrest was determined by the increase in the percentage of the G1 population.

LNCaP cells [3] = assay: Western blot of proteasome target proteins in LNCaP cells; conditions: for increase of IκB-α levels / increase of p27 levels / Bax protein levels / apoptosis-specific PARP cleavage: 10 μM; for increase of IκB-α levels / increase of p27 levels: 12 hour treatment; for Bax protein levels / apoptosis-specific PARP cleavage: 24 hours
In short: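 LNCaP cells exposed to 25 μM (−)- or (+)-EGCG-amide for up to 9 h, or synthetic analogs for indicated hours. Whole-cell extracts (60 μg protein) probed by ECL Western blot for p27, IκB-α, Bax and polyubiquitinated proteins; p27 or IκB-α quantified as ratio to actin band intensity.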

SMILES | inhibition of colony formation (LNCaP cells [1]) [%] | increase in G1 arrest as compared to (−)-EGCG (LNCaP cells [2]) | increase of G1 population (G1 arrest) (LNCaP cells [2]) [%] | increase of IκB-α levels (LNCaP cells [3]) [fold] | increase of p27 levels (LNCaP cells [3]) [fold] | Bax protein levels (LNCaP cells [3]) | apoptosis-specific PARP cleavage (LNCaP cells [3]) | inhibition at 10 µM (LNCaP cells [1]; Homo sapiens, LNCaP, 336 h) [%] | levels of Bax protein (LNCaP cells [3]; 50 μM, 3 to 12 hours) | levels of p27, IκB-α and Bax (LNCaP cells [3]; 25 μM, up to 9 hours)
O=C(OC1Cc2c(O)cc(O)cc2OC1c1cc(O)c(O)c(O)c1)c1cc(O)c(O)c(O)c1 (single isomer, unassigned; (+)) [(+)-EGCG] | 99.5 | approximately 30% | 18 | 2.6 | 3.1 | significantly increased Bax protein levels | induced the apoptosis-specific PARP cleavage |  |  | 
O=C(OC1Cc2c(O)cc(O)cc2OC1c1cc(O)c(O)c(O)c1)c1cc(O)c(O)c(O)c1 (single isomer, unassigned; (+)) [(+)-GCG] |  |  | ~14 | 3.7 | 5.8 |  |  | 91.5 |  | 
O=C(O[C@@H]1Cc2c(O)cc(O)cc2O[C@@H]1c1cc(O)c(O)c(O)c1)c1cc(O)c(O)c(O)c1 [(−)-EGCG, (−)-epigallocatechin-3-gallate, reference compound] | 99.0 |  | ~14 |  |  | significantly increased Bax protein levels | induced the apoptosis-specific PARP cleavage |  | increased only at 12 hours | 
O=C(N[C@@H]1Cc2c(O)cc(O)cc2O[C@@H]1c1cc(O)c(O)c(O)c1)c1cc(O)c(O)c(O)c1 [(−)-EGCG-amide, (−)-[2R,3R]-N-[5,7-Dihydroxy-2-(3,4,5-trihydroxyphenyl)-chroman-3-yl]-3,4,5-trihydroxybenzamide] |  |  |  |  |  |  |  |  |  | able to increase levels of p27, IκB-α and Bax by 3 hours
